≈ marks a conversion by molar mass, not a printed value. Calls of active or inactive are those of the source. The calls are words filed in the database; no cut-off is given here. Bridge positions count the residues as written; N and C are the ends. Peptide text beside a SMILES is read from it. I, II: the chains in the order shown. * marks the point of attachment. Palmitoyl = CCCCCCCCCCCCCCCC(=O)*; Myristoyl = CCCCCCCCCCCCCC(=O)*; Lauroyl = CCCCCCCCCCCC(=O)*; Decanoyl = CCCCCCCCCC(=O)*
Assays:
Pseudomonas aeruginosa [1] = assay: Antibacterial activity against Pseudomonas aeruginosa DR18531 after 24 hrs by broth microdilution method; assay type: functional
Pseudomonas aeruginosa [2] = assay: Antibacterial activity against Pseudomonas aeruginosa DM4150R after 24 hrs by broth microdilution method; assay type: functional
Pseudomonas aeruginosa [3] = assay: Antibacterial activity against Pseudomonas aeruginosa DM23257 after 24 hrs by broth microdilution method; assay type: functional
Pseudomonas aeruginosa [4] = assay: Antibacterial activity against Pseudomonas aeruginosa DM23376 after 24 hrs by broth microdilution method; assay type: functional
Pseudomonas aeruginosa [5] = assay: Antibacterial activity against Pseudomonas aeruginosa DU14476 after 24 hrs by broth microdilution method; assay type: functional
Pseudomonas aeruginosa [6] = assay: Antibacterial activity against Pseudomonas aeruginosa DR5790 after 24 hrs by broth microdilution method; assay type: functional
Pseudomonas aeruginosa [7] = assay: Antibacterial activity against Pseudomonas aeruginosa DR4877 after 24 hrs by broth microdilution method; assay type: functional
Pseudomonas aeruginosa [8] = assay: Antibacterial activity against Pseudomonas aeruginosa ATCC 9027 after 24 hrs by broth microdilution method; assay type: functional
Pseudomonas aeruginosa [9] = assay: Antibacterial activity against Pseudomonas aeruginosa ATCC 27853 after 24 hrs by broth microdilution method; assay type: functional
Escherichia coli [10] = assay: Antibacterial activity against Escherichia coli DS17232 after 24 hrs by broth microdilution method; assay type: functional
Escherichia coli [11] = assay: Antibacterial activity against Escherichia coli DM17528 after 24 hrs by broth microdilution method; assay type: functional
Klebsiella pneumoniae [12] = assay: Antibacterial activity against Klebsiella pneumoniae DS07955 after 24 hrs by broth microdilution method; assay type: functional
Klebsiella pneumoniae [13] = assay: Antibacterial activity against Klebsiella pneumoniae DS16260 after 24 hrs by broth microdilution method; assay type: functional
Klebsiella pneumoniae [14] = assay: Antibacterial activity against Klebsiella pneumoniae DU31158 after 24 hrs by broth microdilution method; assay type: functional
Klebsiella pneumoniae [15] = assay: Antibacterial activity against Klebsiella pneumoniae DB55301 after 24 hrs by broth microdilution method; assay type: functional
[16] = Toxicity in New Zealand white rabbit erythrocytes assessed as hemolytic activity after 60 mins; assay type: cell-based, Oryctolagus cuniculus; details: erythrocyte, 1 h
Klebsiella pneumoniae [17] = assay: Antibacterial activity against Klebsiella pneumoniae DM4299 after 24 hrs by broth microdilution method; assay type: functional; details: DM4299, 24 h
Pseudomonas aeruginosa [18] = assay: Antibacterial activity against Pseudomonas aeruginosa DM23155 after 24 hrs by broth microdilution method; assay type: functional; details: DM23155, 24 h
Escherichia coli [19] = assay: Antibacterial activity against Escherichia coli ATCC 25922 after 24 hrs by broth microdilution method; assay type: functional; details: ATCC 25922, 24 h
[20] = Self-aggregation activity of the compound using 8-(Phenylamino)-1-naphthalenesulfonic acid as fluorescent probe at 300 uM by fluorescence assay; assay type: physicochemical
Lipopolysaccharide (LPS) [21] = assay: Displacement of dansylcadaverine from Escherichia coli 0111:B4 LPS at 15 to 30 uM after 5 mins by high-throughput fluorescence displacement assay
Lipopolysaccharide (LPS) [22] = assay: Induction of Escherichia coli 0111:B4 LPS neutralization using p-nitroaniline assessed as concentration required to neutralize 50% after 1 hr by limulus amebocyte lysate assay
Pseudomonas aeruginosa [23] = assay: Induction of 1-N-phenylnaphthylamine uptake in Pseudomonas aeruginosa DM23155 at 400 uM after 1 hr by fluorescence assay relative to polymyxin B; assay type: functional
[24] = Induction of calcein leakage from DOPC artificial membrane at 1:32 ratio of compound to lipid by fluorescence assay; assay type: physicochemical
Pseudomonas aeruginosa [25] = assay: Induction of cytoplasmic membrane depolarization in Pseudomonas aeruginosa DM23155 at 4 times MIC after 1 hr by fluorescence assay; assay type: functional, organism-based
Pseudomonas aeruginosa [26] = assay: Induction of cytoplasmic membrane disruption in Pseudomonas aeruginosa DM23155 assessed as membrane integrity at 1 to 2 times MIC after 1 hr by fluorescence assay; assay type: functional
[27] = Induction of calcein leakage from DOPE/DOPG artificial membrane at 1:32 ratio of compound to lipid by fluorescence assay; assay type: physicochemical
[28] = Self-aggregation activity of the compound using 8-(Phenylamino)-1-naphthalenesulfonic acid as fluorescent probe at 20 uM by fluorescence assay; assay type: physicochemical
[29] = Self-aggregation activity of the compound using 8-(Phenylamino)-1-naphthalenesulfonic acid as fluorescent probe at 100 uM by fluorescence assay; assay type: physicochemical
[30] = Self-aggregation activity of the compound using 8-(Phenylamino)-1-naphthalenesulfonic acid as fluorescent probe at 300 uM by fluorescence assay in presence of 150 mM of NaCl; assay type: physicochemical

GENTAMICIN gave an MIC (Pseudomonas aeruginosa [1]) of 30 µM, an MIC (Pseudomonas aeruginosa [2]) of 0.5 µM and an MIC (Pseudomonas aeruginosa [3]) of 0.5 µM. It also gave an MIC (Pseudomonas aeruginosa [4]) of 0.5 µM, an MIC (Pseudomonas aeruginosa [5]) of 25 µM and an MIC (Pseudomonas aeruginosa [6]) of 25 µM. It also gave an MIC (Pseudomonas aeruginosa [7]) of over 60 µM, an MIC (Pseudomonas aeruginosa [8]) of 0.25 µM and an MIC (Pseudomonas aeruginosa [9]) of 500 nM. The MIC (Escherichia coli [10]) was 1000 nM, the MIC (Escherichia coli [11]) was under 250 nM and the MIC (Klebsiella pneumoniae [12]) was over 60 µM. The MIC (Klebsiella pneumoniae [13]) was 2000 nM, the MIC (Klebsiella pneumoniae [14]) was under 250 nM and the MIC (Klebsiella pneumoniae [15]) was 7.5 µM.

With `CCCCCCCCCCCC(=O)N[C@@H](CCCNC(=N)N)C(=O)NCC(=O)N[C@@H](CCCNC(=N)N)C(=O)N[C@@H](CCCCN)C(=O)NCC(=O)NCC(=O)N[C@@H](CCCNC(=N)N)C(=O)N[C@@H](CCCNC(=N)N)C(=O)NCCCC[C@H](NC(=O)[C@H](CCCNC(=N)N)NC(=O)[C@H](CCCNC(=N)N)NC(=O)CNC(=O)CNC(=O)[C@H](CCCCN)NC(=O)[C@H](CCCNC(=N)N)NC(=O)CNC(=O)[C@H](CCCNC(=N)N)NC(=O)CCCCCCCCCCC)C(=O)N[C@@H](CCCCN)C(=O)O` (I: Lauroyl-RGRKGGRRKK-OH / II: Lauroyl-RGRKGGRR; amide I:9-II:C) the HC10 [16] was 517 µg/mL, the MIC (Klebsiella pneumoniae [17]) was 6 µM (≈ 14.9 µg/mL) and the MIC (Pseudomonas aeruginosa [18]) was 6 µM (≈ 14.9 µg/mL). For the same compound, the MIC (Escherichia coli [19]) was 6 µM (≈ 14.9 µg/mL), the Activity [20] was 62.5% and the Activity (Lipopolysaccharide (LPS) [21]) was 126%. For the same compound, the EC50 (Lipopolysaccharide (LPS) [22]) was 62.8 µM, the Activity (Pseudomonas aeruginosa [23]) was 55.9% and the Activity [24] was “Active”.

In the case of `CCCCCCCCCCCC(=O)N[C@@H](CCCNC(=N)N)C(=O)NCC(=O)N[C@@H](CCCNC(=N)N)C(=O)N[C@@H](CCCCN)C(=O)N[C@H](C(=O)N[C@H](C(=O)N[C@@H](CCCNC(=N)N)C(=O)N[C@@H](CCCNC(=N)N)C(=O)NCCCC[C@H](NC(=O)[C@H](CCCNC(=N)N)NC(=O)[C@H](CCCNC(=N)N)NC(=O)[C@@H](NC(=O)[C@@H](NC(=O)[C@H](CCCCN)NC(=O)[C@H](CCCNC(=N)N)NC(=O)CNC(=O)[C@H](CCCNC(=N)N)NC(=O)CCCCCCCCCCC)C(C)C)C(C)C)C(=O)N[C@@H](CCCCN)C(=O)O)C(C)C)C(C)C` (I: Lauroyl-RGRKVVRRKK-OH / II: Lauroyl-RGRKVVRR; amide I:9-II:C), the HC10 [16] is reported as 543 µg/mL, the MIC (Klebsiella pneumoniae [17]) is reported as 6 µM (≈ 15.9 µg/mL) and the MIC (Pseudomonas aeruginosa [18]) is reported as 6 µM (≈ 15.9 µg/mL). The MIC (Escherichia coli [19]) was 6 µM (≈ 15.9 µg/mL), the Activity [20] was 27.6% and the Activity (Lipopolysaccharide (LPS) [21]) was 130%. For the same compound, the EC50 (Lipopolysaccharide (LPS) [22]) was 29 µM, the Activity (Pseudomonas aeruginosa [25]) was “Active” and the Activity (Pseudomonas aeruginosa [26]) was under 50%. For the same compound, the Activity [27] was “Active” and the Activity [24] was “Active”.

`CCCCCCCCCCCCCCCC(=O)N[C@@H](CCCNC(=N)N)C(=O)NCC(=O)N[C@@H](CCCNC(=N)N)C(=O)N[C@@H](CCCCN)C(=O)NCC(=O)NCC(=O)N[C@@H](CCCNC(=N)N)C(=O)N[C@@H](CCCNC(=N)N)C(=O)N[C@@H](CCCCN)C(=O)N[C@@H](CCCCN)C(=O)O` (Palmitoyl-RGRKGGRRKK-OH) showed an HC10 [16] of 5064 µg/mL, an MIC (Klebsiella pneumoniae [17]) of 80 µM (≈ 115 µg/mL) and an MIC (Pseudomonas aeruginosa [18]) of 80 µM (≈ 115 µg/mL). For the same compound, the MIC (Escherichia coli [19]) was 10 µM (≈ 14.4 µg/mL) and the Activity [20] was “Not Active”.

Compound `CCCCCCCCCCCCCC(=O)N[C@@H](CCCNC(=N)N)C(=O)NCC(=O)N[C@@H](CCCNC(=N)N)C(=O)N[C@@H](CCCCN)C(=O)NCC(=O)NCC(=O)N[C@@H](CCCNC(=N)N)C(=O)N[C@@H](CCCNC(=N)N)C(=O)NCCCC[C@H](NC(=O)[C@H](CCCNC(=N)N)NC(=O)[C@H](CCCNC(=N)N)NC(=O)CNC(=O)CNC(=O)[C@H](CCCCN)NC(=O)[C@H](CCCNC(=N)N)NC(=O)CNC(=O)[C@H](CCCNC(=N)N)NC(=O)CCCCCCCCCCCCC)C(=O)N[C@@H](CCCCN)C(=O)O` (I: Myristoyl-RGRKGGRRKK-OH / II: Myristoyl-RGRKGGRR; amide I:9-II:C) has an HC10 [16] of 82 µg/mL, an MIC (Klebsiella pneumoniae [17]) of 10 µM (≈ 25.4 µg/mL) and an MIC (Pseudomonas aeruginosa [18]) of 6 µM (≈ 15.3 µg/mL). The MIC (Escherichia coli [19]) was 10 µM (≈ 25.4 µg/mL), the Activity [28] was 50% and the Activity [29] was 50%. For the same compound, the Activity [30] was “Active”, the Activity (Lipopolysaccharide (LPS) [21]) was 124% and the EC50 (Lipopolysaccharide (LPS) [22]) was 35.3 µM. For the same compound, the Activity (Pseudomonas aeruginosa [23]) was 39.2% and the Activity [24] was “Active”.

`CCCCCCCCCC(=O)N[C@@H](CCCNC(=N)N)C(=O)NCC(=O)N[C@@H](CCCNC(=N)N)C(=O)N[C@@H](CCCCN)C(=O)NCC(=O)NCC(=O)N[C@@H](CCCNC(=N)N)C(=O)N[C@@H](CCCNC(=N)N)C(=O)NCCCC[C@H](NC(=O)[C@H](CCCNC(=N)N)NC(=O)[C@H](CCCNC(=N)N)NC(=O)CNC(=O)CNC(=O)[C@H](CCCCN)NC(=O)[C@H](CCCNC(=N)N)NC(=O)CNC(=O)[C@H](CCCNC(=N)N)NC(=O)CCCCCCCCC)C(=O)N[C@@H](CCCCN)C(=O)O` (I: Decanoyl-RGRKGGRRKK-OH / II: Decanoyl-RGRKGGRR; amide I:9-II:C) showed an HC10 [16] of over 10000 µg/mL, an MIC (Klebsiella pneumoniae [17]) of 3 µM (≈ 7.29 µg/mL) and an MIC (Pseudomonas aeruginosa [18]) of 3 µM (≈ 7.29 µg/mL). For the same compound, the MIC (Escherichia coli [19]) was 6 µM (≈ 14.6 µg/mL), the MIC (Pseudomonas aeruginosa [1]; DR18531, 24 h) was 6 µM (≈ 14.6 µg/mL) and the MIC (Pseudomonas aeruginosa [2]) was 6 µM (≈ 14.6 µg/mL). It also gave an MIC (Pseudomonas aeruginosa [3]; DM23257, 24 h) of 6 µM (≈ 14.6 µg/mL), an MIC (Pseudomonas aeruginosa [4]; DM23376, 24 h) of 6 µM (≈ 14.6 µg/mL) and an MIC (Pseudomonas aeruginosa [5]; DU14476, 24 h) of 3 µM (≈ 7.29 µg/mL). For the same compound, the MIC (Pseudomonas aeruginosa [6]; DR5790, 24 h) was 3 µM (≈ 7.29 µg/mL), the MIC (Pseudomonas aeruginosa [7]; DR4877, 24 h) was 6 µM (≈ 14.6 µg/mL) and the MIC (Pseudomonas aeruginosa [8]; ATCC 9027, 24 h) was 6 µM (≈ 14.6 µg/mL). For the same compound, the MIC (Pseudomonas aeruginosa [9]; ATCC 27853, 24 h) was 3000 nM (≈ 7.29 µg/mL), the Activity (Lipopolysaccharide (LPS) [21]) was 122% and the EC50 (Lipopolysaccharide (LPS) [22]) was 142 µM. The Activity (Pseudomonas aeruginosa [23]) was 44.3% and the Activity [24] was “Active”.

Source: ChEMBL document CHEMBL3603789, “N-Lipidated Peptide Dimers: Effective Antibacterial Agents against Gram-Negative Pathogens through Lipopolysaccharide Permeabilization” (J Med Chem, 2015)
